# According to BindingDB's records for doi:10.1021/acs.jmedchem.7b00901 (University of South Australia, 2018):
# Target: Cyclin-dependent kinase inhibitor 1 (Homo sapiens, UniProt P38936)
# Experiment: Inhibition of p21 (unknown origin)-induced transcription in human HT1080 p21-9-CMV-GFP cells after 3 days by fluorescence assay
# Chain of Cyclin-dependent kinase inhibitor 1 (P38936 whole entry): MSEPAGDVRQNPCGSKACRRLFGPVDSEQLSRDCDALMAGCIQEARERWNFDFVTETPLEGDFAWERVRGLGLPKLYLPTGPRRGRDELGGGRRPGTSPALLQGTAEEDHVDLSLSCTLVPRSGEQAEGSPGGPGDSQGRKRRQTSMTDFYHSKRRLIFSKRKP
smiles,measurement,value
N#Cc1ccc2ncnc(NCCc3ccccc3)c2c1,IC50,640 nM
